Earlier results on one molecule are cited in US20040132055A1, “Recombinant chalcomycin polyketide synthase and modifying genes” (priority 2002, published 2004).

For the series the following is noted: spectrum, in words.

`COC1CC(C)OC(OC2C(C)/C=C/C(=O)OC(C)C(COC3OC(C)C(O)C(OC)C3OC)C3OC3/C=C/C(=O)C(C)(O)CC2C)C1O` (stereo not shown) [Chalcomycin, chalcomycin]: the antimicrobial activity entry was “broad spectrum of antimicrobial activity”.
